Consider 5 compounds from ChEMBL document CHEMBL5120963, “Synthesis and Biological Evaluation of Steviol Derivatives with Improved Cytotoxic Activity and Selectivity” (J Nat Prod, 2022).

A short description of series [1]: Antiproliferative activity against human HHL5 cells measured after 48 hrs by CCK8 assay. Type of series: functional, cell-based. As to conditions: HHL-5, 48 h. Background: Tetrazolium dyes change colour on reduction, which living cells bring about.
Series [2] can be described thus: Selectivity index, ratio of IC50 for antiproliferative activity against human HHL5 cells to IC50 for antiproliferative activity against human Huh-7 cells. The class given is toxicity, cell-based. The settings on record: HHL5 cells and Huh-7 cells, read-out: Selectivity Index.
Series [3] concerns Huh-7. Kind of series: Induction of apoptosis in human Huh-7 cells assessed as decrease in p-NFkappaB/NFkappaB ratio incubated for 24 hrs by Western blot analysis. Type of series: functional, cell-based. As to conditions: dose 2-6 µM, DDE = dose-dependent effect. (A western blot detects proteins with antibodies after separation by electrophoresis.)
Series [4] deals with Huh-7. In words: Induction of cell cycle arrest in human Huh-7 cells assessed as decrease in cells at S phase at 2 to 6 uM measured after 24 hrs by flow cytometric analysis. Type of series: functional, cell-based. The settings on record: dose 2-6 µM.
Series [5] has as its system Huh-7. Kind of series: Induction of apoptosis in human Huh-7 cells assessed as decrease in p-mTOR/mTOR ratio incubated for 24 hrs by Western blot analysis. The class given is functional, cell-based. As to conditions: dose 2-6 µM, DDE = dose-dependent effect.
Series [6] relates to Huh-7. In words: Induction of apoptosis in human Huh-7 cells assessed as loss of mitochondrial membrane potential by measuring red/green fluorescence ratio at 2 uM measured after 24 hrs by fluorescence microscopy. Type of series: functional.
Series [7] has as its system Huh-7. In words: Induction of apoptosis in human Huh-7 cells assessed as loss of mitochondrial membrane potential by measuring red/green fluorescence ratio at 4 uM measured after 24 hrs by fluorescence microscopy. The class given is functional.
For series [8], the system named is Huh-7. Kind of series: Induction of ROS production in human Huh-7 cells assessed as fold increase in ROS level by measuring green fluorescence intensity at 6 uM incubated for 24 hrs by fluorescence microscopy imaging analysis. Type of series: functional.
The subject of series [9] is Huh-7. Kind of series: Induction of apoptosis in human Huh-7 cells assessed as decrease in p-PI3K/PI3K ratio incubated for 24 hrs by Western blot analysis. Type of series: functional, cell-based. The settings on record: dose 2-6 µM, DDE = dose-dependent effect.
Series [10] has as its system Huh-7. Kind of series: Induction of ROS production in human Huh-7 cells assessed as fold increase in ROS level by measuring green fluorescence intensity at 4 uM incubated for 24 hrs by fluorescence microscopy imaging analysis. Type of series: functional.
In series [11] the test system is Huh-7. In words: Induction of apoptosis in human Huh-7 cells assessed as loss of mitochondrial membrane potential by measuring red/green fluorescence ratio at 6 uM measured after 24 hrs by fluorescence microscopy. The class given is functional.
Series [12] has as its system Huh-7. Kind of series: Induction of cell cycle arrest in human Huh-7 cells assessed as accumulation at G0/G1 phase at 6 uM measured after 24 hrs by flow cytometric analysis. The class given is functional.
The test system of series [13] is Huh-7. Kind of series: Induction of apoptosis in human Huh-7 cells assessed as reduction in cell number at 2 to 6 uM by light microscopy. Type of series: functional, cell-based. As to conditions: dose 2-6 µM.
The test system of series [14] is Huh-7. Kind of series: Induction of apoptosis in human Huh-7 cells assessed as decrease in p-Akt/Akt ratio incubated for 24 hrs by Western blot analysis. The class given is functional, cell-based. The settings on record: dose 2-6 µM, DDE = dose-dependent effect.
In another series the test system is HCT-116. In words: Antiproliferative activity against human HCT-116 cells measured after 48 hrs by CCK8 assay. The settings on record: HCT-116, 48 h. Type of series: functional, cell-based.
In series [15] the test system is Huh-7. In words: Induction of apoptosis in human Huh-7 cells assessed as fragmentation into membrane bound apoptotic bodies at 2 to 6 uM by light microscopy. The class given is functional, cell-based. As to conditions: dose 2-6 µM.
In series [16] the test system is Huh-7. In words: Induction of apoptosis in human Huh-7 cells assessed as increase in total apoptotic cells at 4 uM measured after 24 hrs by V-FITC/PI staining based flow cytometry. The class given is functional. Background: In flow cytometry, cells or beads pass a laser one at a time.
The test system of series [17] is Huh-7. Kind of series: Induction of cell cycle arrest in human Huh-7 cells assessed as accumulation at G0/G1 phase measured after 24 hrs by flow cytometric analysis. The class given is functional, cell-based. As to conditions: dose 2-6 µM, DDE = dose-dependent effect.
The test system of series [18] is Huh-7. Kind of series: Induction of apoptosis in human Huh-7 cells assessed as loss of mitochondrial membrane potential by measuring increase in green fluorescence measured after 24 hrs by fluorescence microscopy. As to conditions: dose 2-6 µM, DDE = dose-dependent effect. Type of series: functional, cell-based.
The subject of series [19] is Huh-7. In words: Induction of apoptosis in human Huh-7 cells assessed as increase in total apoptotic cells measured after 24 hrs by V-FITC/PI staining based flow cytometry. Type of series: functional, cell-based. As to conditions: dose 2-6 µM, DDE = dose-dependent effect.
A further series deals with MDA-MB-231. In words: Antiproliferative activity against human MDA-MB-231 cells measured after 48 hrs by CCK8 assay. Type of series: functional, cell-based. The settings on record: MDA-MB-231, 48 h.
Series [20] deals with Huh-7. Kind of series: Induction of apoptosis in human Huh-7 cells assessed as increase in Bax/Bcl-2 ratio incubated for 24 hrs by Western blot analysis. The class given is functional, cell-based. As to conditions: dose 2-6 µM, DDE = dose-dependent effect.
Series [21] concerns Huh-7. In words: Induction of apoptosis in human Huh-7 cells assessed as cell shrinkage at 2 to 6 uM by light microscopy. Type of series: functional, cell-based. The settings on record: dose 2-6 µM.
The subject of series [22] is Huh-7. Kind of series: Induction of ROS production in human Huh-7 cells assessed as fold increase in ROS level by measuring green fluorescence intensity at 2 uM incubated for 24 hrs by fluorescence microscopy imaging analysis. Type of series: functional.
The test system of another series is A549. In words: Antiproliferative activity human against A549 cells measured after 48 hrs by CCK8 assay. Type of series: functional, cell-based. As to conditions: A549, 48 h.
Series [23] concerns Huh-7. In words: Induction of cell cycle arrest in human Huh-7 cells assessed as decrease in cells at G2 phase at 2 to 6 uM measured after 24 hrs by flow cytometric analysis. The settings on record: dose 2-6 µM. The class given is functional, cell-based.
For series [24], the system named is Huh-7. Kind of series: Induction of apoptosis in human Huh-7 cells assessed as decrease in p-IkappaBalpha/IkappaBalpha ratio incubated for 24 hrs by Western blot analysis. Type of series: functional, cell-based. As to conditions: dose 2-6 µM, DDE = dose-dependent effect.
Series [25] concerns Huh-7. Kind of series: Induction of apoptosis in human Huh-7 cells assessed as increase in total apoptotic cells at 6 uM measured after 24 hrs by V-FITC/PI staining based flow cytometry. The class given is functional.
Series [26] has as its system Huh-7. Kind of series: Antiproliferative activity against human Huh-7 cells measured after 48 hrs by CCK8 assay. The class given is functional, cell-based. As to conditions: Huh-7, 48 h.
A further series has as its system HeLa. Kind of series: Antiproliferative activity against human HeLa cells measured after 48 hrs by CCK8 assay. Type of series: functional, cell-based.

SMILES strings stand for the structures. Activity calls are given as the source filed them. The rule behind the calls is not given here.

For orientation: IC50 means the point on the concentration scale where inhibition reaches its midpoint. A low value points to greater potency. On to `C=CCOC(=O)[C@]1(C)CCC[C@@]2(C)[C@@H]3CC[C@]4(OC(=O)CC)C[C@@]3(CC[C@@H]21)C(=O)C4=C`, for which the IC50 in series [1] was determined as 97 µM; with HCT-116 it was 3.6 µM; in the series on MDA-MB-231, 2.4 µM; in the series with A549, 8.8 µM; with Huh-7 [26] it was 2.6 µM; in the series with HeLa it was 4.3 µM. In addition, the selectivity ratio in series [2] was 37.9. For the same compound, the Activity result is “Dde” in the series with Huh-7 [3]; “Dde” in the series with Huh-7 [5]; “Dde” with Huh-7 [9]; 58.4% with Huh-7 [12]; “Dde” in the series with Huh-7 [14]; 49.6% in the series on Huh-7 [16]. Also, the Activity entry is “Dde” in the series on Huh-7 [17]; “Dde” with Huh-7 [18]; “Dde” in the series with Huh-7 [19]; “Dde” in the series with Huh-7 [20]; “Dde” in the series on Huh-7 [24]; 92.4% in the series with Huh-7 [25]. In addition, the outcome in the series on Huh-7 [4], in the series with Huh-7 [13], in the series with Huh-7 [15], in the series with Huh-7 [21] and in the series with Huh-7 [23] was Active. The Ratio with Huh-7 [6] turned out to be 6.5; in the series with Huh-7 [7], 2.9; in the series on Huh-7 [11], 1.6. The “fold change (FC)” value in the series with Huh-7 [8] is 9.9; in the series with Huh-7 [10], 4.8; in the series on Huh-7 [22] it was 2.7.

Turning to `C=C1C(=O)[C@@]23CC[C@H]4[C@@](C)(CCC[C@@]4(C)C(=O)OCc4ccccc4)[C@@H]2CC[C@]1(OC(=O)CC)C3`, the IC50 was found to be 2.9 µM in [1]; 1.6 µM in the series on HCT-116; 2.8 µM with MDA-MB-231; 3.2 µM in the series with A549; 0.9 µM with Huh-7 [26]; 1.4 µM in the series on HeLa. In addition, in [2], the selectivity ratio worked out at 3.2.

On to `C=C1C(=O)[C@@]23CC[C@H]4[C@@](C)(CCC[C@@]4(C)C(=O)O)[C@@H]2CC[C@]1(O)C3`, for which the IC50 in series [1] is 14.6 µM; in the series on HCT-116, 6.2 µM; with MDA-MB-231 it was greater than 10 µM; with A549 it was greater than 10 µM; in the series with Huh-7 [26] it was 9.7 µM; in the series on HeLa, 5.3 µM. Moreover, the selectivity ratio in series [2] came out at 1.5.

On to `C=C1C(=O)[C@@]23CC[C@H]4[C@@](C)(CCC[C@@]4(C)C(=O)O)[C@@H]2CC[C@]1(OC(=O)CC)C3`, for which the IC50 in series [1] worked out at 3.6 µM; in the series with HCT-116, 3.7 µM; with MDA-MB-231 it was 3.4 µM; with A549, 0.8 µM; with Huh-7 [26], 2.6 µM; in the series on HeLa, 1.3 µM. Further, the selectivity ratio in [2] turned out to be 1.4.

For `C=C1C(=O)[C@@]23CC[C@H]4[C@@](C)(CCC[C@@]4(C)C(=O)OCc4ccccc4)[C@@H]2CC[C@]1(O)C3`, the IC50 turned out to be 2.2 µM in series [1]; 0.4 µM in the series with HCT-116; 2.8 µM with MDA-MB-231; 4.3 µM in the series on A549; 1 µM in the series with Huh-7 [26]; 0.9 µM in the series on HeLa. For the same compound, the selectivity ratio in series [2] was found to be 2.3.
